Assay results: PubChem BioAssay AID1259407 (Chemical Carcinogenesis Research Information System (CCRIS), 2018)
Calls of active or inactive are those of the source. The rule behind the calls is not given here.

Test system: CCRIS mutagenicity, Ames/micronucleus/aberration tests
Experiment: CCRIS mutagenicity studies
[1] = Test System: AMES SALMONELLA TYPHIMURIUM, Strain/Indicator: TA97, Metabolic Activation: NONE, Method: PREINCUBATION
[2] = Test System: AMES SALMONELLA TYPHIMURIUM, Strain/Indicator: TA98, Metabolic Activation: NONE, Method: PREINCUBATION
[3] = Test System: AMES SALMONELLA TYPHIMURIUM, Strain/Indicator: TA98, Metabolic Activation: NONE, Method: STANDARD PLATE
[4] = Test System: AMES SALMONELLA TYPHIMURIUM, Strain/Indicator: TA98, Metabolic Activation: RAT, LIVER, S-9, AROCLOR 1254, Method: STANDARD PLATE
[5] = Test System: AMES SALMONELLA TYPHIMURIUM, Strain/Indicator: TA100, Metabolic Activation: NONE, Method: PREINCUBATION
[6] = Test System: AMES SALMONELLA TYPHIMURIUM, Strain/Indicator: TA100, Metabolic Activation: NONE, Method: STANDARD PLATE
[7] = Test System: AMES SALMONELLA TYPHIMURIUM, Strain/Indicator: TA100, Metabolic Activation: RAT, LIVER, S-9, AROCLOR 1254, Method: STANDARD PLATE
[8] = Test System: AMES SALMONELLA TYPHIMURIUM, Strain/Indicator: TA1535, Metabolic Activation: RAT, LIVER, S-9, AROCLOR 1254, Method: STANDARD PLATE

Measured: mutagenic call

NC(N)=S
inactive: Test System: AMES SALMONELLA TYPHIMURIUM, Strain/Indicator: TA97, Metabolic Activation: HAMSTER, LIVER, S-9, AROCLOR 1254 (10 OR 30%), Method: PREINCUBATION inactive; negative | [1] inactive; negative | Test System: AMES SALMONELLA TYPHIMURIUM, Strain/Indicator: TA97, Metabolic Activation: NONE, Method: STANDARD PLATE inactive; negative | Test System: AMES SALMONELLA TYPHIMURIUM, Strain/Indicator: TA97, Metabolic Activation: RAT, LIVER, S-9, AROCLOR 1254 (10 OR 30%), Method: PREINCUBATION inactive; negative | Test System: AMES SALMONELLA TYPHIMURIUM, Strain/Indicator: TA97, Metabolic Activation: RAT, LIVER, S-9, AROCLOR 1254, Method: STANDARD PLATE inactive; negative | Test System: AMES SALMONELLA TYPHIMURIUM, Strain/Indicator: TA98, Metabolic Activation: HAMSTER, LIVER, S-9, AROCLOR 1254 (10 OR 30%), Method: PREINCUBATION inactive; negative | [2] inactive; negative | [3] inactive; negative | Test System: AMES SALMONELLA TYPHIMURIUM, Strain/Indicator: TA98, Metabolic Activation: RAT LIVER S-9, PHENOBARBITAL AND BETA-NAPHTHOFLAVONE, Method: PREINCUBATION inactive; negative | Test System: AMES SALMONELLA TYPHIMURIUM, Strain/Indicator: TA98, Metabolic Activation: RAT, LIVER, S-9, AROCLOR 1254 (10 OR 30%), Method: PREINCUBATION inactive; negative | [4] inactive; negative | Test System: AMES SALMONELLA TYPHIMURIUM, Strain/Indicator: TA100, Metabolic Activation: HAMSTER, LIVER, S-9, AROCLOR 1254 (10 OR 30%), Method: PREINCUBATION inactive; negative | [5] inactive; negative | [6] inactive; negative | Test System: AMES SALMONELLA TYPHIMURIUM, Strain/Indicator: TA100, Metabolic Activation: RAT LIVER S-9, PHENOBARBITAL AND BETA-NAPHTHOFLAVONE, Method: PREINCUBATION inactive; negative | Test System: AMES SALMONELLA TYPHIMURIUM, Strain/Indicator: TA100, Metabolic Activation: RAT, LIVER, S-9, AROCLOR 1254 (10 OR 30%), Method: PREINCUBATION inactive; negative | [7] inactive; negative | Test System: AMES SALMONELLA TYPHIMURIUM, Strain/Indicator: TA1535, Metabolic Activation: HAMSTER, LIVER, S-9, AROCLOR 1254 (10 OR 30%), Method: PREINCUBATION inactive; negative | Test System: AMES SALMONELLA TYPHIMURIUM, Strain/Indicator: TA1535, Metabolic Activation: NONE, Method: PREINCUBATION inactive; negative | Test System: AMES SALMONELLA TYPHIMURIUM, Strain/Indicator: TA1535, Metabolic Activation: RAT LIVER S-9, PHENOBARBITAL AND BETA-NAPHTHOFLAVONE, Method: PREINCUBATION inactive; negative | Test System: AMES SALMONELLA TYPHIMURIUM, Strain/Indicator: TA1535, Metabolic Activation: RAT, LIVER, S-9, AROCLOR 1254 (10 OR 30%), Method: PREINCUBATION inactive; negative | Test System: AMES SALMONELLA TYPHIMURIUM, Strain/Indicator: TA1537, Metabolic Activation: NONE, Method: PREINCUBATION inactive; negative | Test System: AMES SALMONELLA TYPHIMURIUM, Strain/Indicator: TA1537, Metabolic Activation: RAT LIVER S-9, PHENOBARBITAL AND BETA-NAPHTHOFLAVONE, Method: PREINCUBATION inactive; negative | Test System: E. COLI, Strain/Indicator: WP2 UVRA, Metabolic Activation: HAMSTER, LIVER, S-9, AROCLOR 1254, Method: STANDARD PLATE inactive; negative | Test System: E. COLI, Strain/Indicator: WP2 UVRA, Metabolic Activation: HAMSTER, LIVER, S-9, Method: STANDARD PLATE inactive; negative | Test System: E. COLI, Strain/Indicator: WP2 UVRA, Metabolic Activation: MOUSE, LIVER, S-9, AROCLOR 1254, Method: STANDARD PLATE inactive; negative | Test System: E. COLI, Strain/Indicator: WP2 UVRA, Metabolic Activation: MOUSE, LIVER, S-9, Method: STANDARD PLATE inactive; negative | Test System: E. COLI, Strain/Indicator: WP2 UVRA, Metabolic Activation: NONE, Method: STANDARD PLATE inactive; negative | Test System: E. COLI, Strain/Indicator: WP2 UVRA, Metabolic Activation: RAT, LIVER, S-9, AROCLOR 1254, Method: STANDARD PLATE inactive; negative | Test System: E. COLI, Strain/Indicator: WP2 UVRA, Metabolic Activation: RAT, LIVER, S-9, Method: STANDARD PLATE inactive; negative | Test System: E.COLI, Strain/Indicator: WP2UVRA/PKM101, Metabolic Activation: NONE, Method: PREINCUBATION inactive; negative | Test System: E.COLI, Strain/Indicator: WP2UVRA/PKM101, Metabolic Activation: RAT LIVER S-9, PHENOBARBITAL AND BETA-NAPHTHOFLAVONE, Method: PREINCUBATION inactive; negative | Test System: MOUSE LYMPHOMA, Strain/Indicator: L5178Y (TK+/TK-), Metabolic Activation: NONE, Method: SUSPENSION/PLATE inactive; negative

CNC(=O)Oc1ccccc1
inactive: [4] inactive; negative | [8] inactive; negative

O=C(O)/C=C\C(=O)O
inactive: [1] inactive; negative | Test System: AMES SALMONELLA TYPHIMURIUM, Strain/Indicator: TA97, Metabolic Activation: RAT, LIVER, S-9, PHENOBARBITAL AND 5,6-BENZOFLAVONE, Method: PREINCUBATION inactive; negative | [2] inactive; negative | [3] inactive; negative | [4] inactive; negative | Test System: AMES SALMONELLA TYPHIMURIUM, Strain/Indicator: TA98, Metabolic Activation: RAT, LIVER, S-9, PHENOBARBITAL AND 5,6-BENZOFLAVONE, Method: PREINCUBATION inactive; negative | [5] inactive; negative | [6] inactive; negative | [7] inactive; negative | Test System: AMES SALMONELLA TYPHIMURIUM, Strain/Indicator: TA100, Metabolic Activation: RAT, LIVER, S-9, PHENOBARBITAL AND 5,6-BENZOFLAVONE, Method: PREINCUBATION inactive; negative | Test System: AMES SALMONELLA TYPHIMURIUM, Strain/Indicator: TA102, Metabolic Activation: NONE, Method: PREINCUBATION inactive; negative | Test System: AMES SALMONELLA TYPHIMURIUM, Strain/Indicator: TA102, Metabolic Activation: RAT, LIVER, S-9, PHENOBARBITAL AND 5,6-BENZOFLAVONE, Method: PREINCUBATION inactive; negative | Test System: AMES SALMONELLA TYPHIMURIUM, Strain/Indicator: TA104, Metabolic Activation: NONE, Method: PREINCUBATION inactive; negative | Test System: AMES SALMONELLA TYPHIMURIUM, Strain/Indicator: TA104, Metabolic Activation: RAT, LIVER, S-9, PHENOBARBITAL AND 5,6-BENZOFLAVONE, Method: PREINCUBATION inactive; negative | Test System: AMES SALMONELLA TYPHIMURIUM, Strain/Indicator: TA1535, Metabolic Activation: NONE, Method: STANDARD PLATE inactive; negative | [8] inactive; negative | Test System: AMES SALMONELLA TYPHIMURIUM, Strain/Indicator: TA1537, Metabolic Activation: NONE, Method: STANDARD PLATE inactive; negative | Test System: AMES SALMONELLA TYPHIMURIUM, Strain/Indicator: TA1537, Metabolic Activation: RAT, LIVER, S-9, AROCLOR 1254, Method: STANDARD PLATE inactive; negative | Test System: AMES SALMONELLA TYPHIMURIUM, Strain/Indicator: TA1538, Metabolic Activation: NONE, Method: STANDARD PLATE inactive; negative | Test System: AMES SALMONELLA TYPHIMURIUM, Strain/Indicator: TA1538, Metabolic Activation: RAT, LIVER, S-9, AROCLOR 1254, Method: STANDARD PLATE inactive; negative

Cc1c2cc(CO)ccc2nc2c1c1c(c3ccccc32)O1
inactive: [6] inactive; negative
